Test results as given in PubChem BioAssay (NCI).
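Five compound concentrations were applied to cells in 96-well plates for 48 hours; endpoints were derived by simple linear interpolation of the resulting dose-response curve. TGI denotes the concentration required for complete inhibition of growth.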

Tests used:
Test in all cases: NCI tumour cell line growth inhibition, 48 h
[1] = test system: OVCAR-8 ovarian
[2] = test system: 786-0 renal
[3] = test system: NCI-H522 lung
[4] = test system: SNB-19 CNS
[5] = test system: UACC-62 melanoma
[6] = test system: HL-60(TB) leukemia
[7] = test system: NCI-H460 lung
[8] = test system: OVCAR-3 ovarian
[9] = test system: CCRF-CEM leukemia
[10] = test system: KM12 colon
[11] = test system: COLO 205 colon
[12] = test system: MOLT-4 leukemia
[13] = test system: A549 NSCLC
[14] = test system: HCC-2998 colon
[15] = test system: MDA-N
[16] = test system: SK-MEL-5 melanoma
[17] = test system: MALME-3M melanoma
[18] = test system: SF-539 CNS
[19] = test system: IGROV1 ovarian
[20] = test system: SR leukemia
[21] = test system: EKVX NSCLC
[22] = test system: HT29 colon
[23] = test system: OVCAR-5 ovarian
[24] = test system: SNB-75 CNS
[25] = test system: MDA-MB-435
[26] = test system: A498 renal
[27] = test system: UACC-257 melanoma
[28] = test system: DU-145 prostate
[29] = test system: M14 melanoma
[30] = test system: HOP-62 NSCLC
[31] = test system: K-562 leukemia
[32] = test system: LOX IMVI melanoma
[33] = test system: RPMI-8226 leukemia
[34] = test system: ACHN renal
[35] = test system: CAKI-1 renal
[36] = test system: HCT-116 colon
[37] = test system: BT-549 breast
[38] = test system: PC-3 prostate
[39] = test system: HS 578T breast
[40] = test system: SN12C renal
[41] = test system: T-47D breast
[42] = test system: SK-MEL-2 melanoma
[43] = test system: SK-MEL-28 melanoma
[44] = test system: NCI/ADR-RES ovarian
[45] = test system: NCI-H226 lung
[46] = test system: SW-620 colon
[47] = test system: SK-OV-3 ovarian
[48] = test system: HOP-92 NSCLC
[49] = test system: HCT-15 colon
[50] = test system: MDA-MB-231 breast
[51] = test system: MCF7 breast
[52] = test system: TK-10 renal
[53] = test system: RXF 393 renal
[54] = test system: U251 CNS
[55] = test system: OVCAR-4 ovarian
[56] = test system: UO-31 renal
[57] = test system: SF-268 CNS
[58] = test system: SF-295 CNS
[59] = test system: NCI-H23 lung

CC(=O)O[C@@H]1C(C2CCCCC2)C=[N+]([O-])O[C@@H]1OC1CCCC1(c1ccccc1)c1ccccc1 (some centres undefined)
TGI [1]: 4.22 µM
TGI [2]: 16.8 µM
TGI [3]: 4.1 µM
TGI [4]: 30.5 µM
TGI [5]: 19.4 µM
TGI [6]: 3.4 µM
TGI [7]: 30 µM
TGI [8]: 10.3 µM
TGI [9]: 7.49 µM
TGI [10]: 22.9 µM
TGI [11]: 17.7 µM
TGI [12]: > 27.6 µM
TGI [13]: 28.5 µM
TGI [14]: 26 µM
TGI [15]: 12.2 µM
TGI [16]: 28 µM
TGI [17]: 9.05 µM
TGI [18]: 14.2 µM
TGI [19]: 8.83 µM
TGI [20]: > 22.8 µM
TGI [21]: 30.2 µM
TGI [22]: 5.65 µM
TGI [23]: 30.7 µM
TGI [24]: 17.6 µM
TGI [25]: 9.04 µM
TGI [26]: 17.1 µM
TGI [27]: 36.5 µM
TGI [28]: 25.3 µM
TGI [29]: 12.1 µM
TGI [30]: 29.3 µM
TGI [31]: > 40.2 µM
TGI [32]: 3.48 µM
TGI [33]: 7.91 µM
TGI [34]: 4.84 µM
TGI [35]: 10.4 µM
TGI [36]: 15.5 µM
TGI [37]: 24.8 µM
TGI [38]: 23 µM
TGI [39]: 27.8 µM
TGI [40]: 21.2 µM
TGI [41]: 10.1 µM
TGI [42]: 27.8 µM
TGI [43]: 5.84 µM
TGI [44]: 29.3 µM
TGI [45]: 32.1 µM
TGI [46]: 4.63 µM
TGI [47]: 29.1 µM
TGI [48]: 23.1 µM
TGI [49]: 4.21 µM
TGI [50]: 27.1 µM
TGI [51]: 12 µM
TGI [52]: 28.3 µM
TGI [53]: 6.82 µM
TGI [54]: 26.1 µM
TGI [55]: 21.1 µM
TGI [56]: 20.4 µM
TGI [57]: 17.6 µM
TGI [58]: 27.4 µM
TGI [59]: 26.2 µM
